These results are taken from patent US7122666B2, “Heteroaryl-substituted pyrrole derivatives, their preparation and their therapeutic uses” (Sankyo Company, Limited, priority 1999, dated 2006).

Usually IC50 stands for the concentration that inhibits the measured activity by half.

Assay [1] has as its system TNFα production in human whole blood. Kind of assay: Inhibition of the production of TNFα in vitro in human whole blood (Test Examples 1 and 1′). In kind it is cell-based. Particulars: Table 7′, lipopolysaccharide 10 μg/ml, 6 hours at 37° C., plasma TNFα by ELISA, least squares, read-out: Inhibitory Effect on TNFα Production (in vitro) IC50. As for the experimental part:
(§1) Inhibition of the Production of the Cytokines IL-1β and TNFα in Vitro in Human Whole Blood
(§2) This test was performed according to the method of Hartman, et al. [D. A. Hartman, S. J. Ochalski and R. P. Carlson; The effects of anti-inflammatory and antiallergic drugs on cytokine release after stimulation of human whole blood by lipopolysaccharide and zymosan A: Inflamm. Res., 44, 269 (1995)].
(§3) Peripheral blood samples were collected in the presence of heparin from healthy adult volunteers. 1000 μl of whole blood were added to an Eppendorf tube to which 2 μl of a dimethyl sulfoxide solution of the test compound had been added in advance, after which 10 μl of lipopolysaccharide (E. coli 026: B6 origin, Difco) were added as a stimulant (final concentration of said lipopolysaccharide: 10 μg/ml). This was mixed well and then incubated for 6 hours at 37° C. in the presence of 5% CO2. At the end of the incubation, the mixture was cooled to 4° C. to stop the reaction, followed immediately by centrifuging for 5 minutes at 14,000 rpm to separate and collect the supernatant plasma. The IL-1β and TNFα produced and released into the plasma were measured using a commercially available enzyme immunoassay (ELISA) kit [Cayman (IL-1β) and Genzyme (TNFα)]. The procedure was also repeated in the absence of test compound. The inhibitory effect [IC50 (μM)] on the production of IL-1β and TNFα was determined from the amounts of the cytokines produced in the presence and absence of the test compound.
(§4) Inhibition of the Production of the Cytokines IL-1β and TNFα In Vitro in Human Whole Blood
as §3, with “O26:” for “026:”, “plasma” for “plasma.”, “kits” for “kit”, “determined by the method of least squares” for “determined”
For orientation: An ELISA detects its analyte on a solid surface through an enzyme-linked reagent.

In assay [2] the test system is adjuvant-induced arthritis. Put plainly: Activity in preventing the development of adjuvant-induced arthritis in vivo (Test Examples 4 and 4′). The note with it: Table 10′; Lewis rat, oral once a day from day 0 to day 20, inhibition of swelling of injected foot on day 21. As for the experimental part:
The test was performed according to the method described by Winder et al. (Arthritis Rheum., 12, 472–482, 1969). Heat-killed dried Mycobacterium butyricum (Difco Laboratories, Lot 679123) was ground on an agate mortar, and was then suspended in dry-sterilised liquid paraffin (first grade, Wako Pure Chemical Industries, Ltd.) to make a 2 ml suspension. The resulting suspension was then sonicated and used as an adjuvant. Arthritis was induced by the intradermal injection of the adjuvant (100 μg of heat killed dried bacterium/0.05 ml of paraffin/paw) into the heel of the right hind paw of a Lewis rat (male, age 8 weeks, Japan Charles River). […] The volumes of the swollen feet (adjuvant-injected right hind foot volume—non-injected left hind foot volume) were calculated. The percent inhibition of swelling of the injected foot of the treated animals as compared to that of the control animals on day 21 was calculated as follows. […] ID50 values were calculated using this curve. […] […]

Assay [3] has as its system IL-1β production in human whole blood. Kind of assay: Inhibition of the production of IL-1β in vitro in human whole blood (Test Examples 1 and 1′). In kind it is cell-based. The note with it: Table 8′, lipopolysaccharide 10 μg/ml, 6 hours at 37° C., plasma IL-1β by ELISA, least squares, read-out: Inhibitory Effect on IL-1β Production (in vitro) IC50. As to the method: as §1, §2, §3, §4
as §3, with “O26:” for “026:”, “plasma” for “plasma.”, “kits” for “kit”, “determined by the method of least squares” for “determined”

Regarding `CC1C[C@H]2C=C(c3c[nH]c(-c4ccc(F)cc4)c3-c3ccncc3)CCN2C1` (stereo partly drawn) [Example 16′, 2-(4-Fluorophenyl)-4-[(8aS)-2-methyl-1,2,3,5,6,8a-hexahydroindolizin-7-yl]-3-(pyridin-4-yl)1H-pyrrole], the IC50 turned out to be 2.2 nM in assay [1] and 1.7 nM in assay [3]. The “Activity in Preventing the Development of Adjuvant-Induced Arthritis in vivo IC50” value in assay [2] is 1.2 mg/kg.
